Here are results for five compounds from patent US9169241B2, “Quinolinyloxyphenylsulfonamides” (Max-Planck-Gesellschaft Zur Forderung der Wissenschaften …, priority 2009, dated 2015).

The term melting point denotes the temperature, or range, at which the solid turns liquid.

Read-outs that look alike come from different tables or passages of the source.

One data set has as its system viable cells in culture. Description: Cell viability assay at 10 μM (CellTiter-Glo, Table VII).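 Also: graded A 0-20%; B 21-40%; C 41-60%; D over 60% viable cells relative to DMSO control.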 In kind it is cell-based. The conditions noted are these: compound 10 μM, 72 h. As for the experimental part:
The CellTiter-Glo® Luminescent Cell Viability Assay (Promega Corporation. Madison, Wis., USA) is method a determining the number of viable cells in culture based on quantification of the ATP being present which is an indicator of metabolically active cells was used according to manufacturers protocol. In detail the assay was performed in a 96 well format were 1000 cells/well were incubated with compound at concentration 10 μM as well as DMSO control for 72 h in 100 μl cell culture medium. Percentage of inhibition was calculated compared to ATP amount of DMSO control.
Background: Cellular ATP, detected with luciferase, serves as a proxy for viable cell number.

Where [1] appears, read: Homo sapiens, HCT-116, HCT116 def, read-out: percentage (%) of viable cells HCT 116def.
Where [2] appears, read: Homo sapiens, HCT-116, HCT116 wt, read-out: percentage (%) of viable cells HCT 116wt.
Setting [3] is: Homo sapiens, HT-29, HT29, read-out: percentage (%) of viable cells HT29.
Setting [4] is: Homo sapiens, NCI-H358, H358, read-out: percentage (%) of viable cells H358.
The mark [5] stands for this setting: Homo sapiens, NCI-H1650, H1650, read-out: percentage (%) of viable cells H1650.
The mark [6] stands for this setting: Homo sapiens, NCI-H1666, H1666, read-out: percentage (%) of viable cells H1666.
[7] abbreviates: Homo sapiens, NCI-H1975, H1975, read-out: percentage (%) of viable cells H1975.
[8] abbreviates: Homo sapiens, NCI-H1993, H1993, read-out: percentage (%) of viable cells H1993.
Setting [9] is: Homo sapiens, A549, read-out: percentage (%) of viable cells A549.
The mark [10] stands for this setting: Homo sapiens, HCC827, read-out: percentage (%) of viable cells HCC827.
The mark [11] stands for this setting: Homo sapiens, SW480, read-out: percentage (%) of viable cells SW480.
The mark [12] stands for this setting: RKO, read-out: percentage (%) of viable cells RKO.

Compound `COc1cc2c(Oc3ccc(NS(=O)(=O)c4cccc(-c5ccccc5)c4)cc3F)ccnc2cc1OCCCN1CCN(C)CC1` [Example 13, Biphenyl-3-sulfonic acid (3-fluoro-4-{6-methoxy-7-[3-(4-methyl-piperazin-1-yl)-propoxy]-quinolin-4-yloxy}-phenyl)-amide] returned a melting point of 190 to 191 °C. Moreover, the viability at 10 µM in the data set on viable cells in culture (setting [1]) was in the range of 0 to 20%. Moreover, the viability at 10 µM in the data set on viable cells in culture (setting [2]) lay within 0 to 20%. The viability at 10 µM in the data set on viable cells in culture (setting [3]) is 0 to 20%. Moreover, the viability at 10 µM in the data set on viable cells in culture (setting [4]) fell in the range of 0 to 20%. In the data set with viable cells in culture (setting [5]), the viability at 10 µM fell in the range of 21 to 40%. The viability at 10 µM in the data set on viable cells in culture (setting [6]) lay in the range of 0 to 20%. Also, in the data set with viable cells in culture (setting [7]), the viability at 10 µM fell in the range of 0 to 20%. Further, the viability at 10 µM in the data set on viable cells in culture (setting [8]) lay in the range of 0 to 20%. Moreover, in the data set on viable cells in culture (setting [9]), the viability at 10 µM lay in the range of 21 to 40%. In addition, in the data set with viable cells in culture (setting [10]), the viability at 10 µM was in the range of 0 to 20%. Moreover, the viability at 10 µM in the data set on viable cells in culture (setting [11]) lay within 0 to 20%. Besides, in the data set with viable cells in culture (setting [12]), the viability at 10 µM lay within 0 to 20%.

As to `COc1cc2c(Oc3ccc(NS(=O)(=O)c4ccccc4Br)cc3F)ccnc2cc1OCCCN1CCN(C)CC1` [Example 19, 2-Bromo-N-(3-fluoro-4-{6-methoxy-7-[3-(4-methyl-piperazin-1-yl)-propoxy]-quinolin-4-yloxy}-phenyl)-benzenesulfonamide], the melting point lay within 98 to 101 °C. For the same compound, the viability at 10 µM with viable cells in culture (setting [1]) was 21 to 40%. Moreover, in the data set with viable cells in culture (setting [2]), the viability at 10 µM fell in the range of 0 to 20%. In addition, in the data set on viable cells in culture (setting [3]), the viability at 10 µM lay in the range of 0 to 20%. The viability at 10 µM in the data set with viable cells in culture (setting [4]) lay within 0 to 20%. Moreover, in the data set with viable cells in culture (setting [5]), the viability at 10 µM lay within 21 to 40%. Besides, in the data set on viable cells in culture (setting [6]), the viability at 10 µM fell in the range of 21 to 40%. In addition, the viability at 10 µM in the data set on viable cells in culture (setting [7]) lay in the range of 21 to 40%. In addition, in the data set with viable cells in culture (setting [8]), the viability at 10 µM was in the range of 0 to 20%. Moreover, in the data set on viable cells in culture (setting [9]), the viability at 10 µM lay within 21 to 40%. Further, in the data set with viable cells in culture (setting [10]), the viability at 10 µM lay in the range of 21 to 40%. Besides, in the data set with viable cells in culture (setting [11]), the viability at 10 µM is 0 to 20%. Moreover, the viability at 10 µM with viable cells in culture (setting [12]) lay within 0 to 20%.

The compound `COc1cc2c(Oc3ccc(NS(=O)(=O)c4cc(Cl)ccc4Cl)cc3F)ccnc2cc1OCCCN1CCN(C)CC1` [Example 20, 2,5-Dichloro-N-(3-fluoro-4-{6-methoxy-7-[3-(4-methyl-piperazin-1-yl)-propoxy]-quinolin-4-yloxy}-phenyl)-benzenesulfonamide] gave a melting point of 134 to 136 °C. Besides, the viability at 10 µM in the data set on viable cells in culture (setting [1]) lay within 21 to 40%. Further, in the data set on viable cells in culture (setting [2]), the viability at 10 µM lay within 0 to 20%. The viability at 10 µM in the data set on viable cells in culture (setting [3]) was in the range of 0 to 20%. In addition, the viability at 10 µM with viable cells in culture (setting [4]) was in the range of 0 to 20%. For the same compound, in the data set on viable cells in culture (setting [5]), the viability at 10 µM lay within 21 to 40%. In addition, the viability at 10 µM with viable cells in culture (setting [6]) lay within 21 to 40%. In addition, the viability at 10 µM in the data set with viable cells in culture (setting [7]) is 21 to 40%. In addition, the viability at 10 µM in the data set with viable cells in culture (setting [8]) was 21 to 40%. In the data set on viable cells in culture (setting [9]), the viability at 10 µM was above 60%. The viability at 10 µM in the data set with viable cells in culture (setting [10]) was in the range of 41 to 60%. In addition, the viability at 10 µM in the data set on viable cells in culture (setting [11]) was in the range of 0 to 20%. Further, the viability at 10 µM in the data set with viable cells in culture (setting [12]) lay in the range of 0 to 20%.

Compound `COc1cc2c(Oc3ccc(NS(=O)(=O)c4cccc(F)c4)cc3F)ccnc2cc1OCCCN1CCN(C)CC1` [Example 22] had a melting point of 82 to 84 °C. Besides, the viability at 10 µM in the data set on viable cells in culture (setting [1]) fell in the range of 21 to 40%. Besides, the viability at 10 µM in the data set on viable cells in culture (setting [2]) fell in the range of 21 to 40%. Further, the viability at 10 µM in the data set on viable cells in culture (setting [3]) was in the range of 0 to 20%. Also, the viability at 10 µM in the data set with viable cells in culture (setting [4]) was in the range of 0 to 20%. Further, the viability at 10 µM in the data set with viable cells in culture (setting [5]) was in the range of 21 to 40%. In addition, in the data set on viable cells in culture (setting [6]), the viability at 10 µM lay in the range of 21 to 40%. For the same compound, the viability at 10 µM in the data set with viable cells in culture (setting [7]) fell in the range of 0 to 20%. Besides, the viability at 10 µM in the data set on viable cells in culture (setting [8]) is 0 to 20%. The viability at 10 µM in the data set on viable cells in culture (setting [9]) was above 60%. In addition, in the data set with viable cells in culture (setting [10]), the viability at 10 µM was in the range of 21 to 40%. The viability at 10 µM with viable cells in culture (setting [11]) was 0 to 20%. In the data set on viable cells in culture (setting [12]), the viability at 10 µM is 21 to 40%.

Compound `COc1cc2c(Oc3ccc(NS(=O)(=O)c4ccc(F)c(Cl)c4)cc3F)ccnc2cc1OCCCN1CCN(C)CC1` [Example 23, 3-Chloro-4-fluoro-N-(3-fluoro-4-{6-methoxy-7-[3-(4-methyl-piperazin-1-yl)-propoxy]-quinolin-4-yloxy}-phenyl)-benzenesulfonamide] had a melting point of 108 to 110 °C. In addition, the viability at 10 µM in the data set with viable cells in culture (setting [1]) lay in the range of 0 to 20%. Also, the viability at 10 µM with viable cells in culture (setting [2]) lay in the range of 0 to 20%. Besides, the viability at 10 µM with viable cells in culture (setting [3]) fell in the range of 0 to 20%. In addition, in the data set with viable cells in culture (setting [4]), the viability at 10 µM lay within 0 to 20%. Further, the viability at 10 µM in the data set with viable cells in culture (setting [5]) is 21 to 40%. The viability at 10 µM with viable cells in culture (setting [6]) lay in the range of 21 to 40%. The viability at 10 µM with viable cells in culture (setting [7]) fell in the range of 0 to 20%. Further, the viability at 10 µM in the data set with viable cells in culture (setting [8]) lay in the range of 0 to 20%. Besides, the viability at 10 µM in the data set on viable cells in culture (setting [9]) was in the range of 41 to 60%. Besides, the viability at 10 µM in the data set on viable cells in culture (setting [10]) is 21 to 40%. For the same compound, the viability at 10 µM in the data set on viable cells in culture (setting [11]) lay within 0 to 20%. The viability at 10 µM in the data set on viable cells in culture (setting [12]) lay in the range of 0 to 20%.
